Peptide text beside a SMILES is read from it. * marks the point of attachment. Dansyl = CN(C)c1cccc2c(S(=O)(=O)*)cccc12
System: receptor labeled by the radioiodinated analogue of 1 (4, [125I]-YLFQPQRF-NH2); neuropeptide FF receptor
Experiment: Competitive radioligand binding against 4 ([125I]Y8F-amide)
Conditions: mixture-based positional scanning; difference from averaged radioligand displacement of whole library (0); about 80 a.u. = 10-fold change in Ki
From the text: Additionally, three-dimensional (3-D) molecular models of the known smaller-size neuropeptide FF antagonists 3 and 3a were constructed and their low-energy conformations were obtained in the AMBER force-field [Weiner, et al., J. Comput. Chem. 1986, 7, […].] by molecular dynamics calculations involving simulated annealing. A semi-empirical quantum chemical method with the PM3 parameterization [Stewart, J. Comput. Chem. 1989, 10, 209-220.] was used for the final geometry optimization. […] At least one of the rings in domain B is aromatic. No similarity between 3 and 3a outside these domains were apparent; therefore, the simultaneous presence of A and B domains in the structure of neuropeptide FF (1) antagonists is critical to the invention. Apparently, structural subunits (domain C) outside domains A and B should function in a cooperative manner in directing the pharmacophores into proper geometric positions when improved binding to the cognate receptor is to be obtained, which is associated with the improvement of the desired pharmacological effect. An approach involving mixture-based synthetic combinatorial libraries and positional scanning [(a) Houghten, et al., J. Med Chem. 1999, 42, 3743-3778.] was adopted in the search for preferred structural motifs in domain C that assist in achieving this objective in this invention. To allow for the use of 3 as a reference in this process, the guadinino group (A) was incorporated as part of an L-2-amino-5-{[amino(imino)methyl]amino}pentanoyl (arginyl, R, Arg) residue and 5-dimethylamino-1-naphthalenesulphonyl (dansyl) was chosen to form B (However, it must be emphasized that both R and dansyl are replaceable with moieties that bestow A and B domain attributes described in the invention).
Upon screening for residues to replace the glutamine of 3, serine (S) was the only building block in this position that increased the displacement of 4 in the radioligand-binding assay. Therefore, motifs present in dansyl-Gly-Ser-Arg-NH2, dansyl-Gly-Gln-Arg-NH2, dansyl-Gln-Ser-Arg-NH2, and dansyl-Gln-Gln-Arg-NH2 were chosen based on their affinity to the cognate receptor for further consideration as primary templates when designing the domain C of the compounds described in the invention herein. […]

In the case of `CSCC[C@H](NC(=O)[C@H](CO)NS(=O)(=O)c1cccc2c(N(C)C)cccc12)C(=O)N[C@@H](CCCNC(=N)N)C(N)=O` [Dansyl-SMR-amide] (Dansyl-Ser-Met-Arg-NH2), the “Relative Binding Index (RBI)” value is reported as 16 a.u.

`CC[C@H](C)[C@H](NC(=O)[C@H](Cc1c[nH]cn1)NS(=O)(=O)c1cccc2c(N(C)C)cccc12)C(=O)N[C@@H](CCCNC(=N)N)C(N)=O` [Dansyl-HIR-amide] (Dansyl-His-Ile-Arg-NH2) was tested, and the “Relative Binding Index (RBI)” value was 23 a.u.

With `CN(C)c1cccc2c(S(=O)(=O)N[C@@H](Cc3ccc(O)cc3)C(=O)N[C@@H](Cc3c[nH]c4ccccc34)C(=O)N[C@@H](CCCNC(=N)N)C(N)=O)cccc12` [Dansyl-YWR-amide] (Dansyl-Tyr-Trp-Arg-NH2) the “Relative Binding Index (RBI)” value was 16 a.u.

In the case of `CN(C)c1cccc2c(S(=O)(=O)N[C@@H](Cc3c[nH]c4ccccc34)C(=O)N[C@@H](Cc3c[nH]c4ccccc34)C(=O)N[C@@H](CCCNC(=N)N)C(N)=O)cccc12` [Dansyl-WWR-amide] (Dansyl-Trp-Trp-Arg-NH2), the “Relative Binding Index (RBI)” value is reported as 17 a.u.

In the case of `CSCC[C@H](NS(=O)(=O)c1cccc2c(N(C)C)cccc12)C(=O)N[C@@H](CO)C(=O)N[C@@H](CCCNC(=N)N)C(N)=O` [Dansyl-MSR-amide] (Dansyl-Met-Ser-Arg-NH2), the “Relative Binding Index (RBI)” value is reported as −23 a.u.

With `CN(C)c1cccc2c(S(=O)(=O)N[C@@H](Cc3ccccc3)C(=O)N[C@@H](CCCCN)C(=O)N[C@@H](CCCNC(=N)N)C(N)=O)cccc12` [Dansyl-FKR-amide] (Dansyl-Phe-Lys-Arg-NH2) the “Relative Binding Index (RBI)” value was 7 a.u.

For `CC(C)C[C@H](NS(=O)(=O)c1cccc2c(N(C)C)cccc12)C(=O)NCC(=O)N[C@@H](CCCNC(=N)N)C(N)=O` [Dansyl-LGR-amide] (Dansyl-Leu-Gly-Arg-NH2), the “Relative Binding Index (RBI)” value was −27 a.u.

With `CC[C@H](C)[C@H](NC(=O)CNS(=O)(=O)c1cccc2c(N(C)C)cccc12)C(=O)N[C@@H](CCCNC(=N)N)C(N)=O` [Dansyl-GIR-amide] (Dansyl-Gly-Ile-Arg-NH2) the “Relative Binding Index (RBI)” value was 32 a.u.

With `CN(C)c1cccc2c(S(=O)(=O)N[C@@H](Cc3c[nH]c4ccccc34)C(=O)N[C@@H](Cc3ccc(O)cc3)C(=O)N[C@@H](CCCNC(=N)N)C(N)=O)cccc12` [Dansyl-WYR-amide] (Dansyl-Trp-Tyr-Arg-NH2) the “Relative Binding Index (RBI)” value was 7 a.u.

For `CSCC[C@H](NC(=O)[C@H](Cc1c[nH]c2ccccc12)NS(=O)(=O)c1cccc2c(N(C)C)cccc12)C(=O)N[C@@H](CCCNC(=N)N)C(N)=O` [Dansyl-WMR-amide] (Dansyl-Trp-Met-Arg-NH2), the “Relative Binding Index (RBI)” value was 9 a.u.

With `CC[C@H](C)[C@H](NS(=O)(=O)c1cccc2c(N(C)C)cccc12)C(=O)N[C@H](C(=O)N[C@@H](CCCNC(=N)N)C(N)=O)[C@@H](C)O` [Dansyl-ITR-amide] (Dansyl-Ile-Thr-Arg-NH2) the “Relative Binding Index (RBI)” value was −6 a.u.

In the case of `C[C@@H](O)[C@H](NC(=O)[C@H](CO)NS(=O)(=O)c1cccc2c(N(C)C)cccc12)C(=O)N[C@@H](CCCNC(=N)N)C(N)=O` [Dansyl-STR-amide] (Dansyl-Ser-Thr-Arg-NH2), the “Relative Binding Index (RBI)” value is reported as 22 a.u.

With `CC(C)[C@H](NC(=O)[C@H](CO)NS(=O)(=O)c1cccc2c(N(C)C)cccc12)C(=O)N[C@@H](CCCNC(=N)N)C(N)=O` [Dansyl-SVR-amide] (Dansyl-Ser-Val-Arg-NH2) the “Relative Binding Index (RBI)” value was 12 a.u.

With `CN(C)c1cccc2c(S(=O)(=O)N[C@@H](Cc3c[nH]c4ccccc34)C(=O)N[C@@H](Cc3ccccc3)C(=O)N[C@@H](CCCNC(=N)N)C(N)=O)cccc12` [Dansyl-WFR-amide] the “Relative Binding Index (RBI)” value was 7 a.u.

With `CN(C)c1cccc2c(S(=O)(=O)N[C@@H](Cc3ccc(O)cc3)C(=O)N[C@@H](CCC(=O)O)C(=O)N[C@@H](CCCNC(=N)N)C(N)=O)cccc12` [Dansyl-YER-amide] (Dansyl-Tyr-Glu-Arg-NH2) the “Relative Binding Index (RBI)” value was 7 a.u.

For `CN(C)c1cccc2c(S(=O)(=O)N[C@@H](CC(N)=O)C(=O)N[C@@H](CCCCN)C(=O)N[C@@H](CCCNC(=N)N)C(N)=O)cccc12` [Dansyl-NKR-amide] (Dansyl-Asn-Lys-Arg-NH2), the “Relative Binding Index (RBI)” value was 10 a.u.

With `CC[C@H](C)[C@H](NS(=O)(=O)c1cccc2c(N(C)C)cccc12)C(=O)N[C@@H](Cc1c[nH]c2ccccc12)C(=O)N[C@@H](CCCNC(=N)N)C(N)=O` [Dansyl-IWR-amide] (Dansyl-Ile-Trp-Arg-NH2) the “Relative Binding Index (RBI)” value was −2 a.u.

`CN(C)c1cccc2c(S(=O)(=O)N[C@@H](Cc3ccc(O)cc3)C(=O)N[C@@H](Cc3ccccc3)C(=O)N[C@@H](CCCNC(=N)N)C(N)=O)cccc12` [Dansyl-YFR-amide] (Dansyl-Tyr-Phe-Arg-NH2) was tested, and the “Relative Binding Index (RBI)” value was 6 a.u.

With `C[C@@H](O)[C@H](NC(=O)[C@@H](NS(=O)(=O)c1cccc2c(N(C)C)cccc12)[C@@H](C)O)C(=O)N[C@@H](CCCNC(=N)N)C(N)=O` [Dansyl-TTR-amide] (Dansyl-Thr-Thr-Arg-NH2) the “Relative Binding Index (RBI)” value was −3 a.u.

With `C[C@@H](O)[C@H](NC(=O)[C@H](CC(N)=O)NS(=O)(=O)c1cccc2c(N(C)C)cccc12)C(=O)N[C@@H](CCCNC(=N)N)C(N)=O` [Dansyl-NTR-amide] (Dansyl-Asn-Thr-Arg-NH2) the “Relative Binding Index (RBI)” value was 18 a.u.

`CN(C)c1cccc2c(S(=O)(=O)NCC(=O)NCC(=O)N[C@@H](CCCNC(=N)N)C(N)=O)cccc12` [Dansyl-GGR-amide] was tested, and the “Relative Binding Index (RBI)” value was 30 a.u.

With `CC(C)C[C@H](NC(=O)[C@@H]1CCCN1S(=O)(=O)c1cccc2c(N(C)C)cccc12)C(=O)N[C@@H](CCCNC(=N)N)C(N)=O` [Dansyl-PLR-amide] (Dansyl-Pro-Leu-Arg-NH2) the “Relative Binding Index (RBI)” value was −56 a.u.

For `CSCC[C@H](NC(=O)[C@H](CC(C)C)NS(=O)(=O)c1cccc2c(N(C)C)cccc12)C(=O)N[C@@H](CCCNC(=N)N)C(N)=O` [Dansyl-LMR-amide] (Dansyl-Leu-Met-Arg-NH2), the “Relative Binding Index (RBI)” value was −32 a.u.

In the case of `CC(C)[C@H](NS(=O)(=O)c1cccc2c(N(C)C)cccc12)C(=O)N[C@@H](CCCNC(=N)N)C(=O)N[C@@H](CCCNC(=N)N)C(N)=O` [Dansyl-VRR-amide] (Dansyl-Val-Arg-Arg-NH2), the “Relative Binding Index (RBI)” value is reported as −6 a.u.

With `CN(C)c1cccc2c(S(=O)(=O)N[C@@H](CCCNC(=N)N)C(=O)N[C@@H](Cc3c[nH]cn3)C(=O)N[C@@H](CCCNC(=N)N)C(N)=O)cccc12` [Dansyl-RHR-amide] (Dansyl-Arg-His-Arg-NH2) the “Relative Binding Index (RBI)” value was 1 a.u.

With `CN(C)c1cccc2c(S(=O)(=O)N[C@@H](CCC(N)=O)C(=O)N[C@@H](CCCNC(=N)N)C(=O)N[C@@H](CCCNC(=N)N)C(N)=O)cccc12` [Dansyl-QRR-amide] (Dansyl-Gln-Arg-Arg-NH2) the “Relative Binding Index (RBI)” value was 20 a.u.

`CN(C)c1cccc2c(S(=O)(=O)NCC(=O)N[C@@H](Cc3ccccc3)C(=O)N[C@@H](CCCNC(=N)N)C(N)=O)cccc12` [Dansyl-GFR-amide] (Dansyl-Gly-Phe-Arg-NH2) was tested, and the “Relative Binding Index (RBI)” value was 24 a.u.

For `CC(C)[C@H](NC(=O)[C@@H]1CCCN1S(=O)(=O)c1cccc2c(N(C)C)cccc12)C(=O)N[C@@H](CCCNC(=N)N)C(N)=O` [Dansyl-PVR-amide] (Dansyl-Pro-Val-Arg-NH2), the “Relative Binding Index (RBI)” value was −53 a.u.

With `CN(C)c1cccc2c(S(=O)(=O)N[C@@H](CO)C(=O)N[C@@H](CCC(=O)O)C(=O)N[C@@H](CCCNC(=N)N)C(N)=O)cccc12` [Dansyl-SER-amide] (Dansyl-Ser-Glu-Arg-NH2) the “Relative Binding Index (RBI)” value was 16 a.u.

For `CN(C)c1cccc2c(S(=O)(=O)N[C@@H](CCC(N)=O)C(=O)N[C@@H](CC(=O)O)C(=O)N[C@@H](CCCNC(=N)N)C(N)=O)cccc12` [Dansyl-QDR-amide] (Dansyl-Gln-Asp-Arg-NH2), the “Relative Binding Index (RBI)” value was 3 a.u.

For `CC(C)[C@H](NC(=O)[C@H](Cc1c[nH]c2ccccc12)NS(=O)(=O)c1cccc2c(N(C)C)cccc12)C(=O)N[C@@H](CCCNC(=N)N)C(N)=O` [Dansyl-WVR-amide] (Dansyl-Trp-Val-Arg-NH2), the “Relative Binding Index (RBI)” value was 4 a.u.

For `CC(C)C[C@H](NC(=O)[C@H](Cc1ccc(O)cc1)NS(=O)(=O)c1cccc2c(N(C)C)cccc12)C(=O)N[C@@H](CCCNC(=N)N)C(N)=O` [Dansyl-YLR-amide] (Dansyl-Tyr-Leu-Arg-NH2), the “Relative Binding Index (RBI)” value was −1 a.u.

With `CN(C)c1cccc2c(S(=O)(=O)N[C@@H](Cc3c[nH]c4ccccc34)C(=O)N3CCC[C@H]3C(=O)N[C@@H](CCCNC(=N)N)C(N)=O)cccc12` [Dansyl-WPR-amide] (Dansyl-Trp-Pro-Arg-NH2) the “Relative Binding Index (RBI)” value was 12 a.u.

With `C[C@H](NC(=O)[C@H](Cc1ccccc1)NS(=O)(=O)c1cccc2c(N(C)C)cccc12)C(=O)N[C@@H](CCCNC(=N)N)C(N)=O` [Dansyl-FAR-amide] (Dansyl-Phe-Ala-Arg-NH2) the “Relative Binding Index (RBI)” value was −40 a.u.

In the case of `CC(C)C[C@H](NC(=O)[C@H](CCC(N)=O)NS(=O)(=O)c1cccc2c(N(C)C)cccc12)C(=O)N[C@@H](CCCNC(=N)N)C(N)=O` [Dansyl-QLR-amide] (Dansyl-Gln-Leu-Arg-NH2), the “Relative Binding Index (RBI)” value is reported as 13 a.u.

From patent publication US6960574B2, “Antagonists of RF-amide neuropeptides” (University of Florida, priority 2002, dated 2005)
